“And” between values parts separate entries of the source, which are not always exact repeats. Equal values may be shown once. Non-standard residues stand in square brackets, D forms with d. pGlu = O=C1CC[C@@H](C(=O)O)N1
Tested on: peripheral blood mononuclear cells obtained from children
Experiment: IFNγ ELISpot PBMC assay after oral wheat bread challenge (Examples 1-2)
Assay type: cell-based, human
Details: for T cell response in PBMC samples from children after gluten challenge: general increase in SFU in each child, Tables 2-5
Procedure: An oral wheat bread challenge was conducted in DQ2.5+ children and adolescents having Celiac disease. The age ranges were 3-5, 6-10 and 11-18 years of age. An ELISpot peripheral blood mononucleated cell (PBMC) assay was performed to measure the level of IFNγ released by the PBMCs after being contacted with peptide 1, peptide 2, peptide 3, or a combination thereof. The identities of peptides 1, 2, and 3 are shown below.
The values the rows starting from “Blank (SFU)” and ending at “Pept-1/2/3 (150)” are all spot forming unit (SFU) values. The values in the parentheses in the first column are the concentration of each peptide in micrograms that were added to the PBMCs (e.g., Pept-1 50=50 micrograms of Peptide 1, Pept-1/2/3 50=50 micrograms of each of Peptide 1, Peptide 2, and Peptide 3). Pept-1=Peptide 1, Pept-2=Peptide 2, Pept-3=Peptide 3, the amino acid identities of which are mentioned above. D-Gli=deamidated gliadin. WT-Gli=wild-type gliadin. D-Glut=deamidated gluten. WT-Glut=wild-type gluten.
IFNγ ELISpot responses in 9 older children (11-17 yo) and 6 younger children (3-10 yo) were stimulated by the mixture of peptides 1, 2, and 3 described in Example 1 (each peptide at a concentration of 25 ug/mL) or stimulated by deamidated gliadin (100 ug/mL) after 3-day wheat challenge (r2=0.8, p<0.0001). The ELISpot responses were similar using either the peptide mixture of the deamidated gliadin (FIG. 1).

## ELQPFPQPELPYPQPQ ([pGlu]LQPFPQPELPYPQPQ-NH2) [Peptide 1]
  most active peptides in gliadin for children: most active
  T cell response in PBMC samples from children after gluten challenge: induce a T cell response
Subject B, 5.0 × 10^5 cells per well, 25 micrograms, listed as Pept-1
  SFU, IFNγ ELISpot: 4 SFU and 3 SFU
Subject B, 5.0 × 10^5 cells per well, 100 micrograms, listed as Pept-1
  SFU, IFNγ ELISpot: 3 SFU and 2 SFU
Subject C, 5.0 × 10^5 cells per well, 25 micrograms, listed as Pept-1
  SFU, IFNγ ELISpot: 10 SFU and 5 SFU
Subject C, 5.0 × 10^5 cells per well, 50 micrograms, listed as Pept-1
  SFU, IFNγ ELISpot: 6 SFU and 5 SFU
Subject D, 4.0 × 10^5 cells per well, 25 micrograms, listed as Pept-1
  SFU, IFNγ ELISpot: 28 SFU and 32 SFU
Subject D, 4.0 × 10^5 cells per well, 50 micrograms, listed as Pept-1
  SFU, IFNγ ELISpot: 23 SFU and 31 SFU
Subject D, 4.0 × 10^5 cells per well, 100 micrograms, listed as Pept-1
  SFU, IFNγ ELISpot: 32 SFU and 25 SFU
Subject E, 5.0 × 10^5 cells per well, 25 micrograms, listed as Pept-1
  SFU, IFNγ ELISpot: 177 SFU and 139 SFU
Subject E, 5.0 × 10^5 cells per well, 50 micrograms, listed as Pept-1
  SFU, IFNγ ELISpot: 160 SFU and 144 SFU
Subject E, 5.0 × 10^5 cells per well, 100 micrograms, listed as Pept-1
  SFU, IFNγ ELISpot: 139 SFU and 153 SFU
Subject F, 5.0 × 10^5 cells per well, 25 micrograms, listed as Pept-1
  SFU, IFNγ ELISpot: 151 SFU and 146 SFU
Subject F, 5.0 × 10^5 cells per well, 50 micrograms, listed as Pept-1
  SFU, IFNγ ELISpot: 186 SFU and 147 SFU
Subject F, 5.0 × 10^5 cells per well, 100 micrograms, listed as Pept-1
  SFU, IFNγ ELISpot: 166 SFU and 138 SFU
Subject G, 4.0 × 10^5 cells per well, 25 micrograms, listed as Pept-1
  SFU, IFNγ ELISpot: 8 SFU and 14 SFU
Subject G, 4.0 × 10^5 cells per well, 50 micrograms
  SFU, IFNγ ELISpot: 10 SFU
Subject H, 3.5 × 10^5 cells per well, 25 micrograms, listed as Pept-1
  SFU, IFNγ ELISpot: 14 SFU and 13 SFU
Subject H, 3.5 × 10^5 cells per well, 50 micrograms
  SFU, IFNγ ELISpot: 8 SFU
Subject H, 3.5 × 10^5 cells per well, 100 micrograms, listed as Pept-1
  SFU, IFNγ ELISpot: 9 SFU and 8 SFU
Subject I, 5.0 × 10^5 cells per well, 25 micrograms, listed as Pept-1
  SFU, IFNγ ELISpot: 6 SFU and 7 SFU
Subject J, 5.0 × 10^5 cells per well, 25 micrograms, listed as Pept-1
  SFU, IFNγ ELISpot: 103 SFU and 109 SFU
Subject J, 5.0 × 10^5 cells per well, 50 micrograms, listed as Pept-1
  SFU, IFNγ ELISpot: 107 SFU and 92 SFU
Subject J, 5.0 × 10^5 cells per well, 100 micrograms, listed as Pept-1
  SFU, IFNγ ELISpot: 109 SFU and 111 SFU
Subject K, 3.2 × 10^5 cells per well, 25 micrograms, listed as Pept-1
  SFU, IFNγ ELISpot: 33 SFU and 28 SFU
Subject K, 3.2 × 10^5 cells per well, 50 micrograms, listed as Pept-1
  SFU, IFNγ ELISpot: 28 SFU and 20 SFU
Subject K, 3.2 × 10^5 cells per well, 100 micrograms, listed as Pept-1
  SFU, IFNγ ELISpot: 24 SFU and 38 SFU
Subject L, 3.5 × 10^5 cells per well, 25 micrograms, listed as Pept-1
  SFU, IFNγ ELISpot: 10 SFU and 9 SFU
Subject L, 3.5 × 10^5 cells per well, 100 micrograms, listed as Pept-1
  SFU, IFNγ ELISpot: 14 SFU and 7 SFU
Subject M, 2.3 × 10^5 cells per well, 25 micrograms, listed as Pept-1
  SFU, IFNγ ELISpot: 34 SFU and 18 SFU
Subject M, 2.3 × 10^5 cells per well, 50 micrograms, listed as Pept-1
  SFU, IFNγ ELISpot: 32 SFU and 30 SFU
Subject M, 2.3 × 10^5 cells per well, 100 micrograms, listed as Pept-1
  SFU, IFNγ ELISpot: 45 SFU and 40 SFU
Subject N, 2.4 × 10^5 cells per well, 25 micrograms, listed as Pept-1
  SFU, IFNγ ELISpot: 4 SFU and 6 SFU
Subject N, 2.4 × 10^5 cells per well, 100 micrograms, listed as Pept-1
  SFU, IFNγ ELISpot: 5 SFU and 3 SFU
Subject P, 3.0 × 10^5 cells per well, 0.1 micrograms, listed as Pept-1
  SFU, IFNγ ELISpot: 16 SFU and 15 SFU
Subject P, 3.0 × 10^5 cells per well, 0.5 micrograms, listed as Pept-1
  SFU, IFNγ ELISpot: 21 SFU and 24 SFU
Subject P, 3.0 × 10^5 cells per well, 1 micrograms, listed as Pept-1
  SFU, IFNγ ELISpot: 49 SFU and 31 SFU
Subject P, 3.0 × 10^5 cells per well, 2.5 micrograms, listed as Pept-1
  SFU, IFNγ ELISpot: 45 SFU
Subject Q, 3.0 × 10^5 cells per well, 0.1 micrograms, listed as Pept-1
  SFU, IFNγ ELISpot: 12 SFU and 18 SFU
Subject Q, 3.0 × 10^5 cells per well, 0.5 micrograms, listed as Pept-1
  SFU, IFNγ ELISpot: 34 SFU and 32 SFU
Subject Q, 3.0 × 10^5 cells per well, 1 micrograms, listed as Pept-1
  SFU, IFNγ ELISpot: 45 SFU and 36 SFU
Subject R, 3.0 × 10^5 cells per well, 0.1 micrograms, listed as Pept-1
  SFU, IFNγ ELISpot: 12 SFU and 16 SFU
Subject R, 3.0 × 10^5 cells per well, 0.5 micrograms, listed as Pept-1
  SFU, IFNγ ELISpot: 21 SFU and 26 SFU
Subject R, 3.0 × 10^5 cells per well, 1 micrograms, listed as Pept-1
  SFU, IFNγ ELISpot: 22 SFU and 21 SFU
Subject S, 3.0 × 10^5 cells per well, 0.1 micrograms, listed as Pept-1
  SFU, IFNγ ELISpot: 2 SFU and 4 SFU
Subject S, 3.0 × 10^5 cells per well, 0.5 micrograms, listed as Pept-1
  SFU, IFNγ ELISpot: 1 SFU and 2 SFU
Subject S, 3.0 × 10^5 cells per well, 1 micrograms, listed as Pept-1
  SFU, IFNγ ELISpot: 1 SFU and 2 SFU
Subject T, 3.0 × 10^5 cells per well, 0.1 micrograms, listed as Pept-1
  SFU, IFNγ ELISpot: 20 SFU and 18 SFU
Subject T, 3.0 × 10^5 cells per well, 0.5 micrograms, listed as Pept-1
  SFU, IFNγ ELISpot: 34 SFU and 31 SFU
Subject T, 3.0 × 10^5 cells per well, 1 micrograms, listed as Pept-1
  SFU, IFNγ ELISpot: 55 SFU and 60 SFU
Subject U, 3.0 × 10^5 cells per well, 0.1 micrograms, listed as Pept-1
  SFU, IFNγ ELISpot: 6 SFU and 7 SFU
Subject U, 3.0 × 10^5 cells per well, 0.5 micrograms, listed as Pept-1
  SFU, IFNγ ELISpot: 18 SFU and 20 SFU
Subject U, 3.0 × 10^5 cells per well, 1 micrograms, listed as Pept-1
  SFU, IFNγ ELISpot: 33 SFU and 24 SFU

## EPEQPIPEQPQPYPQQ ([pGlu]PEQPIPEQPQPYPQQ-NH2; SMILES CC[C@H](C)[C@H](NC(=O)[C@@H]1CCCN1C(=O)[C@H](CCC(N)=O)NC(=O)[C@H](CCC(=O)O)NC(=O)[C@@H]1CCCN1C(=O)[C@@H]1CCC(=O)N1)C(=O)N1CCC[C@H]1C(=O)N[C@@H](CCC(=O)O)C(=O)N[C@@H](CCC(N)=O)C(=O)N1CCC[C@H]1C(=O)N[C@@H](CCC(N)=O)C(=O)N1CCC[C@H]1C(=O)N[C@@H](Cc1ccc(O)cc1)C(=O)N1CCC[C@H]1C(=O)N[C@@H](CCC(N)=O)C(=O)N[C@@H](CCC(N)=O)C(N)=O) [Peptide 3]
Subject A, 5.0 × 10^5 cells per well, 50 micrograms
  SFU, IFNγ ELISpot: 0 SFU
Subject C, 5.0 × 10^5 cells per well, 50 micrograms
  SFU, IFNγ ELISpot: 3 SFU
Subject D, 4.0 × 10^5 cells per well, 25 micrograms, listed as Pept-3
  SFU, IFNγ ELISpot: 2 SFU and 4 SFU
Subject D, 4.0 × 10^5 cells per well, 50 micrograms
  SFU, IFNγ ELISpot: 2 SFU
Subject D, 4.0 × 10^5 cells per well, 100 micrograms, listed as Pept-3
  SFU, IFNγ ELISpot: 2 SFU and 4 SFU
Subject E, 5.0 × 10^5 cells per well, 25 micrograms
  SFU, IFNγ ELISpot: 3 SFU
Subject E, 5.0 × 10^5 cells per well, 50 micrograms
  SFU, IFNγ ELISpot: 6 SFU
Subject E, 5.0 × 10^5 cells per well, 100 micrograms, listed as Pept-3
  SFU, IFNγ ELISpot: 3 SFU and 4 SFU
Subject G, 4.0 × 10^5 cells per well, 25 micrograms
  SFU, IFNγ ELISpot: 0 SFU
Subject H, 3.5 × 10^5 cells per well, 25 micrograms, listed as Pept-3
  SFU, IFNγ ELISpot: 1 SFU and 2 SFU
Subject H, 3.5 × 10^5 cells per well, 50 micrograms, listed as Pept-3
  SFU, IFNγ ELISpot: 2 SFU and 4 SFU
Subject I, 5.0 × 10^5 cells per well, 50 micrograms
  SFU, IFNγ ELISpot: 1 SFU
Subject J, 5.0 × 10^5 cells per well, 25 micrograms, listed as Pept-3
  SFU, IFNγ ELISpot: 4 SFU and 2 SFU
Subject J, 5.0 × 10^5 cells per well, 50 micrograms, listed as Pept-3
  SFU, IFNγ ELISpot: 2 SFU and 3 SFU
Subject J, 5.0 × 10^5 cells per well, 100 micrograms, listed as Pept-3
  SFU, IFNγ ELISpot: 1 SFU and 2 SFU
Subject K, 3.2 × 10^5 cells per well, 25 micrograms, listed as Pept-3
  SFU, IFNγ ELISpot: 2 SFU and 3 SFU
Subject K, 3.2 × 10^5 cells per well, 50 micrograms, listed as Pept-3
  SFU, IFNγ ELISpot: 2 SFU and 1 SFU
Subject L, 3.5 × 10^5 cells per well, 25 micrograms
  SFU, IFNγ ELISpot: 1 SFU
Subject M, 2.3 × 10^5 cells per well, 25 micrograms
  SFU, IFNγ ELISpot: 0 SFU
Subject M, 2.3 × 10^5 cells per well, 100 micrograms
  SFU, IFNγ ELISpot: 0 SFU
Subject N, 2.4 × 10^5 cells per well, 50 micrograms, listed as Pept-3
  SFU, IFNγ ELISpot: 2 SFU and 1 SFU
Subject N, 2.4 × 10^5 cells per well, 100 micrograms
  SFU, IFNγ ELISpot: 0 SFU
Subject P, 3.0 × 10^5 cells per well, 50 micrograms, listed as Pept-3
  SFU, IFNγ ELISpot: 8 SFU and 6 SFU
Subject Q, 3.0 × 10^5 cells per well, 50 micrograms, listed as Pept-3
  SFU, IFNγ ELISpot: 1 SFU and 2 SFU
Subject R, 3.0 × 10^5 cells per well, 50 micrograms, listed as Pept-3
  SFU, IFNγ ELISpot: 12 SFU and 9 SFU
Subject W, 3.0 × 10^5 cells per well, 50 micrograms
  SFU, IFNγ ELISpot: 8 SFU
Subject Y, 2.29 × 10^5 cells per well, 50 micrograms
  SFU, IFNγ ELISpot: 3 SFU
  T cell response in PBMC samples from children after gluten challenge: induce a T cell response

Reference: patent US20170232083A1, “METHODS OF DIAGNOSIS AND TREATMENT OF CELIAC DISEASE IN CHILDREN” (priority 2014, published 2017)
